Source: patent US4191770A, “N1 -acyl-N2 -phenyldiaminopropanols and pharmaceutical compositions thereof” (Kali-Chemie Pharma GmbH, priority 1977, dated 1980)
Structures can show the parent of a compound that is named as a salt.

Experiments:
[1] = system: indomethacine induced ulcers; assay: Effectiveness against indomethacine-induced ulcers in the rat; assay type: in vivo, rats; details: for inhibition in vivo at 150 mg/kg: dosage 150 mg/kg p.o.; for inhibition in vivo at 68 mg/kg: dosage 68 mg/kg p.o.; for inhibition in vivo at 75 mg/kg: dosage 75 mg/kg p.o.
Experimental: 2. Effectiveness against indomethacineinduced ulcers in the rate (Modified test procedure according to
To at least 6 male rats, having a body-weight of from 170 to 220 g, dosages of the test compounds are administered orally in an amount of 0.5 ml of a suspension medium per 100 g animal body-weight. The animals of the blank control group receive the corresponding amount by volume of the suspension medium only. One hour after application of the test compounds, a dosage of 20 mg per kg of indomethacine contained in an amount of 0.5 ml of a suspension per 100 g animal body-weight, are orally applied to each animal for producing ulcers. 24 hours after the application of indomethacine, the animals are sacrificed.
The mean value and the standard deviation of the numbers of ulcers is calculated, and subsequently the inhibiting activity of the test compounds and a standard compound are calculated as percent inhibition compared with the blank control group.

in vivo = details: mouse, po, single dose p.o., unfed NMRI mice, 7 days, read-out: Toxicity LD50 p.o.
Experimental: The acute 7-day-toxicity is determined after a single application per os in white NMRI-mice which had not been fed. The calculation of the LD50 is carried out by probitanalysis by means of electronic data processing (see L. Cavalli-Sforza, Gustav Fischer-Verlag, Stuttgart (1964), Grundbegriffe der Biometrie, p. 153).

secretion in the stomach = assay: Effect on the secretion in the stomach of narcotized rats (determination of the pH-value); assay type: in vivo; details: for inhibition in vivo at 300 mg/kg: po, dosage 300 mg/kg p.o., narcotized rats, acetylcholine control = 100
Experimental: 3. Effect on the secretion in the stomach of narcotized rats (determinationof the pH-value)
The test is performed on narcotized (urethane narcosis) male rats, having a body-weight of 200-230 g. For this purpose N/4000-sodium hydroxide solution is perfused into the stomachs of rats at a rate of 1 ml per minute by means of a cardia- and pylorus-catheter. The pH value of the perfusate, which leaves the stomach by way of the pylorus catheter, is determined by means of a one-rod measuring system, and is continuously registered.
In order to perform a comparative control test, after a pre-run period of 20 minutes, 10 mg per kg of acetylcholine are applied intraperitoneously. The resulting comparative control value is defined as being 100.
For evaluation, the surface-integral is calculated numerically with the aid of the rule of Simpson. The degree of inhibition of the secretion is calculated from the difference between the surfaces before and after the application of the test compound.

[2] = Rattus norvegicus, po, 1 h before 20 mg/kg indomethacine, 24 h
[3] = at a low dosage, footnote of Table I

| Compound | inhibition in vivo at 150 mg/kg [1, 2] | LD50 at 168 h (in vivo) | inhibition in vivo at 300 mg/kg (secretion in the stomach; Rattus norvegicus) | inhibition in vivo at 75 mg/kg [1, 2] | other results |
| --- | --- | --- | --- | --- | --- |
| CCCCCC(=O)NCC(O)CN(C)c1ccc(F)cc1 (stereo not shown) [Compound 2, N1-hexanoyl-N2-methyl-N2-(4-fluorophenyl)-1,3-diaminopropan-2-ol] | 44% | 4320 mg/kg | 0% |  |  |
| CN(CC(O)CNC(=O)c1ccccn1)c1ccc(Cl)cc1 (stereo not shown) [Compound 11, N1-picolinoyl-N2-methyl-N2-(4-chlorophenyl)-1,3-diaminopropan-2-ol] |  | 3300 mg/kg | 0% |  | inhibition in vivo at 68 mg/kg [1, 2]: 71% |
| CC(C)c1ccc(N(C)CC(O)CNC(=O)c2ccco2)cc1 (stereo not shown) [Compound 19, N1-furoyl-N2-methyl-N2-(4-isopropylphenyl)-1,3-diaminopropan-2-ol] |  | > 1470 mg/kg | 0% | 31% |  |
| CN(CC(O)CNC(=O)c1ccco1)c1ccc(Cl)c(Cl)c1 (stereo not shown) [Compound 12, N1-furoyl-N2-methyl-N2-(3,4-dichlorophenyl)-1,3-diaminopropan-2-ol] |  | > 1470 mg/kg | 0% | 29% |  |
| CN(CC(O)CNC(=O)C1CCCCC1)c1ccc(F)cc1 (stereo not shown) [Compound 6, N1-cyclohexylcarbonyl-N2-methyl-N2-(4-fluorophenyl)-1,3-diaminopropan-2-ol] | 40% | > 1470 mg/kg | 0% |  |  |
| CN(CC(O)CNC(=O)Cc1ccccc1)c1ccc(Cl)cc1 (stereo not shown) [Compound 8, N1-phenacetyl-N2-methyl-N2-(4-chlorophenyl)-1,3-diaminopropan-2-ol] |  | 3860 mg/kg | 0% | 26% |  |
| COc1ccc(C(=O)NCC(O)CN(C)c2ccc(F)cc2)cc1OC (stereo not shown) [Compound 15, N1-(3,4-dimethoxybenzoyl)-N2-methyl-N2-(4-fluorophenyl)-1,3-diaminopropan-2-ol] |  | > 6810 mg/kg | 0% | 32% |  |
| CN(CC(O)CNC(=O)C=Cc1ccccc1)c1ccc(Cl)cc1 (stereo not shown) [Compound 9, N1-cinnamoyl-N2-methyl-N2-(4-chlorophenyl)-1,3-diaminopropan-2-ol] |  | > 6810 mg/kg | 0% |  | inhibition in vivo at 68 mg/kg [1, 2]: 32% |
| COc1ccc(C(=O)NCC(O)CNc2ccccc2Cl)cc1OC (stereo not shown) [Compound 14, N1-(3,4-dimethoxybenzoyl)-N2-(2-chlorophenyl)-1,3-diaminopropan-2-ol] |  | > 6700 mg/kg | 0% | 33% |  |
| CN(CC(O)CNC(=O)C1CCCCC1)c1ccccc1 (stereo not shown) [Compound 5, N1-cyclohexylcarbonyl-N2-methyl-N2-phenyl-1,3-diaminopropan-2-ol] | 47% | 3200 mg/kg | 0% |  |  |
| CC(=O)NCC(O)CN(C)c1ccc(Cl)cc1 (stereo not shown) [Compound 1, N1-acetyl-N2-methyl-N2-(4-chlorophenyl)-1,3-diaminopropan-2-ol] | 33% | 2260 mg/kg | 0% |  |  |
| COc1ccc(C=CC(=O)NCC(O)CN(C)c2ccc(Cl)cc2)cc1OC (stereo not shown) [Compound 10, N1-(3,4-dimethoxycinnamoyl)-N2-methyl-N2-(4-chlorophenyl)-1,3-diaminopropan-2-ol] |  | > 6810 mg/kg | 0% | 32% |  |
| CCCCCCCCCCCCCCCC(=O)NCC(O)CN(C)c1ccc(Cl)cc1 (stereo not shown) [Compound 3, N1-hexadecanoyl-N2-methyl-N2-(4-chlorophenyl)-1,3-diaminopropan-2-ol] | 40% | > 6810 mg/kg | 0% |  |  |
| CN(CC(O)CNC(=O)C1CC1)c1ccccc1 (stereo not shown) [Compound 4, N1-cyclopropylcarbonyl-N2-methyl-N2-phenyl-1,3-diaminopropan-2-ol] | 36% | > 1470 mg/kg | 0% |  |  |
| CCCN(CC(O)CNC(=O)c1ccc(OC)c(OC)c1)c1ccc(Cl)cc1 (stereo not shown) [Compound 17, N1-(3,4-dimethoxybenzoyl)-N2-propyl-N2-(4-chlorophenyl)-1,3-diaminopropan-2-ol] |  | > 6810 mg/kg | 0% | 34% |  |
| CN1[C@@H]2CC[C@H]1C[C@@H](OC(=O)C(CO)c1ccccc1)C2 (stereo partly shown) [A, atropine sulfate, reference compound] |  |  |  |  | inhibition in vivo at 12 mg/kg ([1]; Rattus norvegicus, po, dosage 12 mg/kg p.o., 1 h before 20 mg/kg indomethacine, 24 h): 26%; effect on the ulcer (in words) [1, 3]: does not have a sufficiently; inhibition in vivo at 0.5 mg/kg (secretion in the stomach; Rattus norvegicus, ip, read-out: Inhibition of secretion in the stomach, % inhibition): 100%; inhibition of the secretion in the stomach (in words) (secretion in the stomach; [3]): strong inhibition |
| CCCN(CC(O)CNC(=O)C1CCCCC1)c1ccccc1 (stereo not shown) [Compound 7, N1-cyclohexylcarbonyl-N2-propyl-N2-phenyl-1,3-diaminopropan-2-ol] | 34% | > 1470 mg/kg | 0% |  |  |
| CN(CC(O)CNC(=O)c1ccccc1F)c1ccc(Cl)c(Cl)c1 (stereo not shown) [Compound 18, N1-(2-fluorobenzoyl)-N2-methyl-N2-(3,4-dichlorophenyl)-1,3-diaminopropan-2-ol] |  | > 1470 mg/kg | 0% | 33% |  |
| COc1ccc(C(=O)NCC(O)CN(C)c2ccc(Cl)c(Cl)c2)cc1OC (stereo not shown) [Compound 16, N1-(3,4-dimethoxybenzoyl)-N2-methyl-N2-(3,4-dichlorophenyl)-1,3-diaminopropan-2-ol] |  | > 6810 mg/kg | 0% | 38% |  |
| COCCN(CC(O)CNC(=O)c1ccco1)c1ccc(Cl)cc1 (stereo not shown) [Compound 13, N1-furoyl-N2-methoxyethyl-N2-(4-chlorophenyl)-1,3-diaminopropan-2-ol] |  | > 1470 mg/kg | 0% | 35% |  |
